Assay results: ChEMBL document CHEMBL1128797, “Annohexocin, a novel mono-THF acetogenin with six hydroxyls, from Annona muricata (Annonaceae)” (Bioorg Med Chem Lett, 1995)
Values after ≈ are worked out from the molar mass of the structure shown.

Assays:
PC-3 = assay: Cytotoxic activity was tested against human PC-3 (prostate adenocarcinoma) cell line; assay type: functional; details: read-out: ED50 (the source's name)
MCF7 = assay: Cytotoxic activity was tested against human MCF-7 (breast carcinoma) cell line; assay type: functional; details: read-out: ED50 (the source's name)
A498 = assay: Cytotoxic activity was tested against human A-498 (Kidney carcinoma) cell line; assay type: functional; details: read-out: ED50 (the source's name)
HT-29 = assay: Cytotoxic activity was tested against human HT-29 (colon adenocarcinoma) cell line; assay type: functional; details: read-out: ED50 (the source's name)
A549 = assay: Cytotoxic activity was tested against human […] cell line A-549 (lung carcinoma); assay type: functional; details: read-out: ED50 (the source's name)
[1] = Compound was tested for brine shrimp lethality (BST); assay type: organism-based; details: artemia, in vivo
MIA PaCa-2 [2] = assay: Cytotoxic activity was tested against humanPAC-2 (pancreatic carcinoma) cell line; assay type: functional; details: Homo sapiens, read-out: ED50 (the source's name)
MIA PaCa-2 [3] = assay: Cytotoxic activity was tested against human PAC-2 (pancreatici carcinoma) cell line; assay type: functional; details: read-out: ED50 (the source's name)

Compound | EC50 (PC-3) [µg/mL] | EC50 (MCF7) [µg/mL] | EC50 (A498) [µg/mL] | EC50 (HT-29) [µg/mL] | EC50 (A549) [µg/mL] | LC50 [1] [µg/mL] | EC50 (MIA PaCa-2 [2]) [µg/mL] | EC50 (MIA PaCa-2 [3]) [µg/mL]
CCCCCCCCCCCCC(O)C1CCC(C(O)CCC(O)CC(O)CC(O)CCCC(O)CC2=CC(C)OC2=O)O1 (stereo not drawn) | 0.0195 (≈ 0.031 µM) | 2.26 (≈ 3.59 µM) | 2.36 (≈ 3.75 µM) | 0.78 (≈ 1.24 µM) | 0.34 (≈ 0.541 µM) | 34.4 (≈ 54.7 µM) | 0.77 (≈ 1.22 µM) | 
COc1cccc2c1C(=O)c1c(O)c3c(c(O)c1C2=O)C[C@@](O)(C(=O)CO)C[C@@H]3O[C@H]1C[C@H](N)[C@H](O)[C@H](C)O1 [DOXORUBICIN] | 0.33 (≈ 0.607 µM) | 0.43 (≈ 0.791 µM) | 0.0335 (≈ 0.0616 µM) | 0.0896 (≈ 0.165 µM) | 0.0346 (≈ 0.0637 µM) |  |  | 0.031 (≈ 0.057 µM)
